Results published in publication PMC12350126, “A novel carboxamide bromodomain inhibitor attenuates osteoarthritis via epigenetic repression of NF-κB and MAPK signaling” (Frontiers in Immunology, 2025).

How the values were obtained:
[1] = target: T1, BRD3 (BD1 + BD2) (Homo sapiens, UniProt Q15059); test: TR-FRET assay, BRD3 (BD1 + BD2); details: lower signal = stronger binding
T1 construct: BRD3 (BD1 + BD2); purchased BPS Bioscience
Protocol: (§1) TR-FRET assays were conducted using kits specific for BRD2 (BD1 + BD2), BRD3 (BD1 + BD2), and BRD4 (BD1 + BD2) obtained from BPS Bioscience (San Diego, CA, USA). Bromodomain ligands were diluted in water, and master mixes were prepared by combining the diluted ligands with 1× BRD Homogeneous Assay Buffer. Thawed BRD proteins were also diluted with the same buffer. For each assay, 1.5 μL of the master mix was dispensed into wells of a microplate (Labcyte, San Jose, CA, USA), followed by the addition of 5 μL of diluted BRD protein to initiate the reaction. Plates were incubated at 20–22°C for 30–60 min. Subsequently, glutathione (GSH) acceptor beads and streptavidin-conjugated donor beads (both from PerkinElmer, Waltham, MA, USA) were diluted in 1× BRD Homogeneous Detection Buffer 1. Next, 10 μL of the acceptor bead solution was added to each well and incubated at 18°C for 30 min, followed by the addition of 10 μL of donor bead solution and a further incubation at 18°C for 15–30 min. Alpha particle counts were measured using an EnVision 2105 multimode plate reader (PerkinElmer).

[2] = target: T2, BRD4 (BD1 + BD2) (Homo sapiens, UniProt O60885); test: TR-FRET assay, BRD4 (BD1 + BD2); details: lower signal = stronger binding
T2 construct: BRD4 (BD1 + BD2); purchased BPS Bioscience
Protocol: as §1

[3] = target: T3, BRD4 BD1 (Homo sapiens, UniProt O60885); test: Biosensor binding kinetics assay (Octet), BRD4 BD1
T3 construct: BRD3 BD2, BRD4 BD1, BRD4 BD2; biotin (biotinylated protein); made in house; host or cells: Escherichia coli BL21(DE3)
Protocol: (§2) Binding kinetics were assessed using the Octet® R2 system (Sartorius, Göttingen, Germany). Superstreptavidin biosensors were loaded with biotinylated BRD2 BD1, BRD2 BD2, BRD3 BD1, BRD3 BD2, BRD4 BD1, BRD4 BD2, or biotin alone (as a negative control) in PBST buffer (phosphate-buffered saline containing 0.02% Tween 20 and 5% DMSO). The sensors were then dipped into compound solutions for 10 min. To evaluate association kinetics (kon), each sensor was exposed to serial dilutions of the protein for 180 s, followed by dipping them into PBST buffer to assess dissociation kinetics (koff). For control, a separate sensor loaded with the compound was dipped into PBST alone. Competition binding assays were performed by exposing the compound-loaded sensor to mixtures of proteins and test compounds.

[4] = target: T4, BRD4 BD2 (Homo sapiens, UniProt O60885); test: Biosensor binding kinetics assay (Octet), BRD4 BD2
T4 construct: BRD3 BD2, BRD4 BD1, BRD4 BD2; biotin (biotinylated protein); made in house; host or cells: Escherichia coli BL21(DE3)
Protocol: as §2

[5] = tested on: IL-1β-induced Mmp3, Mmp13 and Cox2 expression in mouse articular chondrocytes; test: IL-1β-induced Mmp3, Mmp13, Cox2 expression in chondrocytes (qRT-PCR, western blotting); format: cell-based; details: IL-1β 1 ng/mL
Protocol: NCD was supplied by Benobio Co (Gyeonggi-do, Korea), and IL‐1β was purchased from GenScript (Piscataway, NJ, USA). NCDs were dissolved in phosphate-buffered saline (PBS) for oral administration or IA injection.
Total RNA was extracted from mouse articular chondrocytes using TRIzol (Molecular Research Center Inc., Cincinnati, OH, USA) and the primers used were for the MMPs, glyceraldehyde 3-phosphate dehydrogenase (GAPDH), and Cox2. Primers utilized were as follows: mouse Mmp3 (5′-TCCTGATGTTGGTGGCTTCAG-3′ and 5′-TGTCTTGGCAAATCCGGTGTA-3′); mouse Mmp13 (5′-TGATGGACCTTCTGGTCTTCTGG-3′ and 5′-CATCCA CATGG TTGGG AAGT TCT-3′); mouse Cox2 (5′-GGTCTGGTGCCTGGTCTGATGAT-3′ and 5′-GTCCTTTCAAGGAGAATGGTGC-3′); mouse Gapdh (5′-TCACT GCCAC CCAGA AGAC-3′ and 5′-TGTAG GCCAT GAGGT CCAC-3′). Gene transcript expression levels were normalized against that of Gapdh by qRT-PCR using SYBR premix ExTaq (Takara Bio, Shiga, Japan). Results were expressed as fold-changes relative to the expression in the control group ([20]).
(§3) The total protein was extracted from the primary cultured chondrocytes using a lysis buffer, containing 150 mM NaCl, 1% NP-40, 50 mM Tris/HCl (pH 8.0), 0.2% sodium dodecyl sulfate, and 5 mM NaF, supplemented with protease and phosphatase inhibitor mixture (Roche, Madison, WI, USA). Proteins were separated using sodium dodecyl sulfate-polyacrylamide gel electrophoresis, and western blot analysis was performed using the following antibodies: goat anti‐Cox2 (sc‐1745; Santa Cruz Biotechnology, Dallas, TX, USA), mouse anti-Erk1/2 (610408; Becton Dickinson, NJ, USA), mouse anti-IκB [9242; Cell Signaling Technology (CST), MA, USA], mouse anti-p65 (8242; CST), mouse anti-phospho-p65 (3033; CST), mouse anti-p38 (#9212; CST), mouse anti-pp38 (#9215S; CST), mouse anti-c-Jun N-terminal kinase (Jnk) (#9252S; CST), mouse anti-pJnk (#9251S; CST), and mouse anti-pErk (#9101S; CST). Each signal was visualized using a SuperSignal West Dura Kit (Thermo Fisher Scientific, Waltham, MA, USA). Density analysis (AlphaEase FC 4.0; Alpha Innotech, CA, USA) was performed to calculate the relevant band intensities. Extracellular signal-regulated kinase (Erk) was used as the loading control ([28]).

[6] = tested on: NF-κB and MAPK signaling in mouse articular chondrocytes; test: IL-1β-induced NF-κB and MAPK signaling in chondrocytes (western blotting, densitometry); format: cell-based; details: NCD 10, 50, 100 μM pretreatment 12 h, IL-1β 1 ng/mL 10 min
Protocol: as §3
Figure 6 NCD regulates NF-κB and MAPK signaling pathways induced by IL-1β in mouse chondrocytes. Articular chondrocytes were pretreated with NCD at different concentrations (0,10, 50, or 100 μM) for 12 h (n = 3) before being stimulated with IL-1β (1 ng/mL) for 10 min. Levels of phosphorylated Jnk (pJnk), phosphorylated Erk (pErk), and phosphorylated p38 (pp38) proteins were determined using western blotting. (A, B) Protein levels of IκB were detected using western blotting (A) and densitometry (B). JQ-1 (200 μM) was used as a positive control. All data were analyzed using one‐way analysis of variance with Bonferroni’s test and expressed as mean ± standard error of mean (SEM) (n = 3); *P < 0.05, **P < 0.01, ***P < 0.001, and ****P < 0.0001 compared to the control group.

[7] = tested on: liver, lungs of mice; test: In vivo organ histology after oral or IA administration
[8] = NCD 10, 50, 100 µM, 12 h, qRT-PCR

T1 sequence (Q15059 29-417 limits assumed): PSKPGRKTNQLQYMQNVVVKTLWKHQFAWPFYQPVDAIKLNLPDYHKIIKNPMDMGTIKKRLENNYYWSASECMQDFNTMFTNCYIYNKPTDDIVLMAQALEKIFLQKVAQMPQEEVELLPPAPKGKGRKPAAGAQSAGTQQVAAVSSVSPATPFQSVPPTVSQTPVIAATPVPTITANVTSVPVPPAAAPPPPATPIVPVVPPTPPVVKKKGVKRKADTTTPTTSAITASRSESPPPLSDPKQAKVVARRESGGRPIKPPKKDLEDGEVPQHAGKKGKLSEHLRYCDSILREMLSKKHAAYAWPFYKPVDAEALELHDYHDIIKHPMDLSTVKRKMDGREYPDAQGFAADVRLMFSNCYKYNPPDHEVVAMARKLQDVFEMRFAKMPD

Structure (SMILES): CNC(=O)CC1C(=O)NCCN1Cc1ccc(-c2ccccc2-c2cccc3c2CN(C)C3=O)o1 (stereo not drawn) [NCD, N-methyl-2-(1-((5-(2-(2-methyl-1-oxoisoindolin-4-yl)phenyl)furan-2-yl)methyl)-3-oxopiperazin-2-yl)acetamide]
- TR-FRET value [1]: > 100000 RLU
- TR-FRET value [2]: > 100000 RLU
- Kd [3]: > 1 µM
- Kd [4]: > 1 µM
- Cox2 mRNA expression [5, 8]: marked, concentration-dependent suppression
- Mmp3 mRNA expression [5, 8]: marked, concentration-dependent suppression
- Mmp13 mRNA expression [5, 8]: marked, concentration-dependent suppression
- mRNA and protein levels of Cox2 ([5]; NCD 50 and 100 µM): substantially reduced
- Degradation of IκB [6]: effectively prevented
- Phosphorylation level of ERK [6]: markedly reduced
- Phosphorylation level of JNK [6]: markedly reduced
- Phosphorylation of the p65 subunit [6]: significantly suppressed
- p38 phosphorylation [6]: remained largely unaffected
- Cytotoxicity in the liver or lungs (histological analyses) ([7]; oral and intra-articular administration): no apparent cytotoxicity
- Organ toxicity in vivo ([7]; oral or IA routes): without causing detectable organ toxicity
